# Data reported in patent US6514956B1, “Steroids, their preparation, pharmaceutical compositions thereof and uses of the compounds” (Shanghai Zhongxi Pharmaceutical Co., Ltd., priority 1999, dated 2003).
# Experiments:
# [1] = compared with mifepristone; reported in Human Reproduction 1994; cited from earlier work
# [2] = test system: Human mammary cancer cells T47D; test: MTT test of killing tumor cells, T47D; format: cell-based; conditions: 4-6 days incubation
# Method: (§1) Human mammary cancer cells (MCF-7, T47D, commercially available) were prepared as 1×10^4/ml cell suspension in RPMI 1640 medium containing 10% calf serum and used to inoculate a 96-well plate at 100 μl/well. The plate was incubated for 24 hours in an incubator in 5% CO2 at 37° C. Two experimental groups each receiving compound of formula (VI) or Mifepristone (commercially available) (triplicate well/group each receiving 100 μl RPMI 1640 medium containing various concentrations of drug) and a control group (each well receiving RPMI medium containing equal volume of solvent) were incubated for 4-6 days in an incubator in 5% CO2 at 37° C. The cultural supernatant was discarded and 0.04% 100 μl MTT prepared with RPMI 1640 was added into each well. Incubation was carried out at 37° C. for 4 hours. The supernatant was discarded and 150 μl dimethyl sulfoxide was added into each well to dissolve Fomazan particles. After being shaked slightly, OD value was measured using a Model 550 Enzyme Labelling Equipment at a wavelength of 540 nm. The rate of inhibition of cells was graphed against the various concentrations of the drug to produce a dosage response curve from which 50% inhibiting concentration IC50 was derived.
# [3] = test system: Human mammary cancer cells MCF-7; test: MTT test of killing tumor cells, MCF-7; format: cell-based; conditions: 4-6 days incubation
# Method: as §1
# [4] = test system: pregnant rats, gravidity d1-4; test: Anti-implantation effect in rat; format: in vivo, Sprague-Dawley rats; conditions: endogastric once a day for 4 days from gravidity d1, Bliss's method
# Method: Both sexes of Sprague-Dawley rats were placed into a cage and were allowed to copulate. […] Pregnant rats were randomly divided into 10 groups of 10. The control group was administered with 0.5% CMC-Na solution. 5 Groups were administered with the compound of formula (VI) and 4 groups were administered with Mifepristone. The groups were administered endogastrically once a day for 4 consecutive days starting from gradivity d1. The groups of animals were laparotomized on gradivity d14 and their uterus examined. The number of pregnant animals was counted. ED50 of the two drugs was calculated with Bliss's method.
# [5] = test system: pregnant rats, gravidity d7-9; test: Effect in stopping early pregnancy in rats; format: in vivo, Sprague-Dawley rats; conditions: for early pregnancy-stopping effect: rats of gravidity d7-9
# Method: Both sexes of Sprague-Dawley rats were placed into a cage and were allowed to copulate. […] Pregnant rats were randomly divided into 11 groups of 10. The control group was administrated with 0.5% CMC-Na solution. 6 Groups were administered with the compound of formula (VI) at doses of 2.0, 1.6, 1.28, 1.02, 0.82 and 0.66 mg/kg respecticely. 4 Groups were administered with Mifepristone at doses of 3.5, 2.45, 1.72 and 1.2 mg/kg respectively. The groups were administered endogastrically once a day (dose 2 ml/kg) for 3 consecutive days starting from gradivity d7. Animals in which ecolporrhagia was not detected and no signs of embryo implantation were found on dissection examination were considered as not pregnant and were not counted. The animals were sacrificed and laparotomized on gradivity d14 and the numbers of living embryos, dead embryos, implantation sites and yellow bodies in the uterus were counted. The number of the pregnant animals were counted and compared with that of the control group. ED50 of the two test drugs and its credibility interval was calculated with Bliss's method.
# [6] = test system: MNU-induced rat mammary cancer; test: Inhibition of MNU-induced rat mammary cancer; format: in vivo, Sprague-Dawley rats; conditions: 30 days
# Method: Sprague-Dawley rats which are 5-7 weeks old and weighing 90-120 g were treated with an amount of carcinogenic chemical (MNU, commercially available) to induce rat mammary cancer and were divided into a group with cancer-induction alone, a group with mifepristone and two treatment groups with the compound of formula (VI). Each group except for the group with cancer-induction alone was endogastrically administrated with corresponding dose one time per day. After 30 days, the animals were sacrificed by decapitation. Indices such as body weight and tumor weight of each group of the animals were compared. The mean value of the groups was calculated and the rate of tumor growth inhibition derived. Rate of tumor inhibition %=(mean value of the group with cancer-induction alone−mean value of the treatment group)/mean value of the group with cancer-induction alone×100%
# [7] = target: T1, progesterone receptor in rabbit endometrium (Oryctolagus cuniculus, UniProt P06186); conditions: cited from earlier work
# T1 construct: progesterone receptor in rabbit endometrium; host or cells: rabbit endometrium (tissue)
# T1 sequence (P06186 1-930): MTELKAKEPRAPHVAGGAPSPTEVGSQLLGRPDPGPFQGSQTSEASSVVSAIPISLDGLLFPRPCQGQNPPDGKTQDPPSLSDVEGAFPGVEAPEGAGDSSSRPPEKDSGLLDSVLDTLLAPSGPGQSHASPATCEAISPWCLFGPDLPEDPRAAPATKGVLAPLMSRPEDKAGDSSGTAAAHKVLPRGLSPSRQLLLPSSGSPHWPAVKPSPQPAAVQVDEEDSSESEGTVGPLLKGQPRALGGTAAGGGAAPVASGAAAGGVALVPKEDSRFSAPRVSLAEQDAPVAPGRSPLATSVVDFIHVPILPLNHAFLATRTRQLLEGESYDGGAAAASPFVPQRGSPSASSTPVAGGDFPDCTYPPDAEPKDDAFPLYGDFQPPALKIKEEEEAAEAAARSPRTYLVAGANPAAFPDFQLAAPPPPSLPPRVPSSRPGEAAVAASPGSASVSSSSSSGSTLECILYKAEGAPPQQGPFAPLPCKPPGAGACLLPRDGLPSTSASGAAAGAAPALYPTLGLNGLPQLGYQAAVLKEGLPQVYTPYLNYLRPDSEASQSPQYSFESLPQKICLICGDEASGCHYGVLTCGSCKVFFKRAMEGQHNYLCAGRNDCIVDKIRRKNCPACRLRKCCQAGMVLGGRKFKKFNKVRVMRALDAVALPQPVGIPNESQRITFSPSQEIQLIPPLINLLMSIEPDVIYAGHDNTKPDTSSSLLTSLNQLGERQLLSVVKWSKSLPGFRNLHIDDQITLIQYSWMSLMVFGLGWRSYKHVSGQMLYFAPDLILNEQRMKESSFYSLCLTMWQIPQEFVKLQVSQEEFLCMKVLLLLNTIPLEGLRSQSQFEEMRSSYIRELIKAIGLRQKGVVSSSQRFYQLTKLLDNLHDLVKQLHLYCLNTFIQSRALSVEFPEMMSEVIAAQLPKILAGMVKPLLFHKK
# [8] = reported in European Journal of Cancer 1999; cited from earlier work
structure (smiles),measurement,setting,value
"CN(C)c1ccc([C@H]2C[C@@]3(C)[C@@H](CC[C@@]3(O)/C=C\CO)[C@@H]3CCC4=CC(=O)CCC4=C32)cc1 [Lilopristone, 11β-[4-(N,N-dimethylamino)phenyl]-17α-[3-hydroxy-1(Z)-propenyl]-17β-hydroxy-4,9-estradiene-3-one]",clinical effect in stopping early pregnancy,[1],only equivalent to that of mifepristone
"CC#C[C@]1(O)CC[C@H]2[C@@H]3CCC4=CC(=O)CCC4=C3[C@@H](c3ccc(N(C)C)cc3)C[C@@]21C [Mifepristone, 11β-[4-(N,N-dimethylamino)phenyl]-17α-(1-propinyl)-17β-hydroxy-4,9-estradiene-3-one]",IC50,[2]; Homo sapiens,11 ± 9.03 µM
same,IC50,"[3]; Homo sapiens, MCF7, MCF-7 cells",10.8 ± 8.1 µM
same,ED50,"[4]; Rattus norvegicus, 96 h",6.69 ± 1.55 mg/kg
same,early pregnancy-stopping effect,[5]; 3.5 mg/kg,complete early pregnancy-stopping effect
same,ED50,"[5]; Rattus norvegicus, 72 h, rats, endogastric once a day for 3 days from gravidity d7, Bliss's method, credibility interval in brackets",2.12 ± 0.447 mg/kg
same,Inhibition (%) of tumor growth,[6]; 40 mg/kg endogastrically once per day,72.1%
same,affinity with progesterone receptor compared with progesterone,[7],five-fold higher than that of progesterone
"CN(C)c1ccc([C@H]2C[C@]3(C)[C@@H](CC[C@]3(O)CCCO)[C@@H]3CCC4=CC(=O)CCC4=C32)cc1 [Onapristone, 11β-[4-(N,N-dimethylamino)phenyl]-17α-hydroxy-17β-(3-hydroxypropyl)-13α-4,9-estradiene-3-one]",toxicity to human liver,[8],had toxicity to human liver
"CC#CC1(O)CCC2C3CCC4=CC(=O)CCC4=C3C(c3ccc(N(C)C4CCCCC4)cc3)CC21C (stereo not drawn) [compound of formula (VI), 11β-[4-(N-methyl-N-cyclohexylamino)phenyl]-17α-(1-propinyl)-17β-hydroxy-4,9-estradiene-3-one]",IC50,[2],6.4 ± 3.15 µM
same,IC50,[3]; MCF-7 cells,5.5 ± 0.72 µM
same,anti-implantation ED50,[4],2.3409 ± 0.6191 mg/kg
same,early pregnancy-stopping effect,[5]; 2 mg/kg/day,complete early pregnancy-stopping effect
same,"ED50, early pregnancy-stopping effect","[5]; rats, endogastric once a day for 3 days from gravidity d7, Bliss's method, credibility interval in brackets",1.1439 ± 0.1590 mg/kg
same,Inhibition (%) of tumor growth,[6]; 10 mg/kg endogastrically once per day,50.4%
same,Inhibition (%) of tumor growth,[6]; 20 mg/kg endogastrically once per day,89.3%
